Key:
[1] = target: Beta-3 adrenergic receptor (Canis lupus familiaris, UniProt O02662); test: Agonist activity at dog beta3 adrenergic receptor expressed in CHO cells assessed as accumulation of cAMP after 30 mins by TR-FRET assay; format: functional, cell-based
[2] = target: T1, Beta-3 adrenergic receptor (Homo sapiens, UniProt P13945); test: Agonist activity at human adrenergic beta3 receptor expressed in CHO cells assessed as accumulation of cAMP after 30 mins by TR-FRET assay in presence of 40% serum relative to (R)-(-)-isoproterenol; format: functional, cell-based
T1 sequence (P13945 whole entry, looked up): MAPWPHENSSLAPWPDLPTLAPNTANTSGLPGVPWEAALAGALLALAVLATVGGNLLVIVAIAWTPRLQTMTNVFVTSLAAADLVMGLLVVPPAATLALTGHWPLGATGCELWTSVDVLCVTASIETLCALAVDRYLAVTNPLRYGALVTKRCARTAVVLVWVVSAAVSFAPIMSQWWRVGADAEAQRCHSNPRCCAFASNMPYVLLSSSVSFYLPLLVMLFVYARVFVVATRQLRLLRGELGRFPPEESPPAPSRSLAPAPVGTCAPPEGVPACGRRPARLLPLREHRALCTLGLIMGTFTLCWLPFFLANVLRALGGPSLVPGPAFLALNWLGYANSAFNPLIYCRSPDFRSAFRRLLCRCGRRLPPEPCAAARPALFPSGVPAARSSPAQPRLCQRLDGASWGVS

[3] = target: Beta-3 adrenergic receptor (Macaca mulatta) (UniProt Q28524); test: Agonist activity at rhesus monkey beta3 adrenergic receptor expressed in CHO cells assessed as accumulation of cAMP after 30 mins by TR-FRET assay in presence of 40% serum relative to (R)-(-)-isoproterenol; format: functional, cell-based
Beta-3 adrenergic receptor (Macaca mulatta), sequence (Q28524 whole entry): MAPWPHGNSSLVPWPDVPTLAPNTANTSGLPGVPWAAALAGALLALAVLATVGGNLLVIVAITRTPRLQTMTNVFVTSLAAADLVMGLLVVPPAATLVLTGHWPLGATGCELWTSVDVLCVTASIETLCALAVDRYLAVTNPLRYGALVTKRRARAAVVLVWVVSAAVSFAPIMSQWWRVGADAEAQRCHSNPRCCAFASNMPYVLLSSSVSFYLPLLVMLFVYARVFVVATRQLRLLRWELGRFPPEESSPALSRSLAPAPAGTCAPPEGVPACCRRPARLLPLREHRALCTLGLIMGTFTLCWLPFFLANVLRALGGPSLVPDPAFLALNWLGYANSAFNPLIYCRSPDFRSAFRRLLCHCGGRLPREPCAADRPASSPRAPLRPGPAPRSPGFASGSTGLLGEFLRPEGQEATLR

[4] = Induction of phospholidosis in human HepG2 cells incubated overnight by […] in presence of fluorescent labeled phospholipid probe NBD-PE; format: cell-based; settings: read-out: A50
[5] = target: Sodium-dependent serotonin transporter (Homo sapiens, UniProt P31645); test: Inhibition of human SERT expressed in HEK293 cells preincubated for 30 mins followed by fluorescent substrate addition measured after 30 mins by plate reader analysis; format: cell-based
[6] = Distribution coefficient, logD of the compound at pH 7.4; format: physicochemical; settings: octanol/water
[7] = target: Voltage-dependent L-type calcium channel subunit alpha-1C (Homo sapiens, UniProt Q13936); test: Displacement of [3H]-diltiazem from human Cav1.2 channel
Voltage-dependent L-type calcium channel subunit alpha-1C, sequence (Q13936 whole entry): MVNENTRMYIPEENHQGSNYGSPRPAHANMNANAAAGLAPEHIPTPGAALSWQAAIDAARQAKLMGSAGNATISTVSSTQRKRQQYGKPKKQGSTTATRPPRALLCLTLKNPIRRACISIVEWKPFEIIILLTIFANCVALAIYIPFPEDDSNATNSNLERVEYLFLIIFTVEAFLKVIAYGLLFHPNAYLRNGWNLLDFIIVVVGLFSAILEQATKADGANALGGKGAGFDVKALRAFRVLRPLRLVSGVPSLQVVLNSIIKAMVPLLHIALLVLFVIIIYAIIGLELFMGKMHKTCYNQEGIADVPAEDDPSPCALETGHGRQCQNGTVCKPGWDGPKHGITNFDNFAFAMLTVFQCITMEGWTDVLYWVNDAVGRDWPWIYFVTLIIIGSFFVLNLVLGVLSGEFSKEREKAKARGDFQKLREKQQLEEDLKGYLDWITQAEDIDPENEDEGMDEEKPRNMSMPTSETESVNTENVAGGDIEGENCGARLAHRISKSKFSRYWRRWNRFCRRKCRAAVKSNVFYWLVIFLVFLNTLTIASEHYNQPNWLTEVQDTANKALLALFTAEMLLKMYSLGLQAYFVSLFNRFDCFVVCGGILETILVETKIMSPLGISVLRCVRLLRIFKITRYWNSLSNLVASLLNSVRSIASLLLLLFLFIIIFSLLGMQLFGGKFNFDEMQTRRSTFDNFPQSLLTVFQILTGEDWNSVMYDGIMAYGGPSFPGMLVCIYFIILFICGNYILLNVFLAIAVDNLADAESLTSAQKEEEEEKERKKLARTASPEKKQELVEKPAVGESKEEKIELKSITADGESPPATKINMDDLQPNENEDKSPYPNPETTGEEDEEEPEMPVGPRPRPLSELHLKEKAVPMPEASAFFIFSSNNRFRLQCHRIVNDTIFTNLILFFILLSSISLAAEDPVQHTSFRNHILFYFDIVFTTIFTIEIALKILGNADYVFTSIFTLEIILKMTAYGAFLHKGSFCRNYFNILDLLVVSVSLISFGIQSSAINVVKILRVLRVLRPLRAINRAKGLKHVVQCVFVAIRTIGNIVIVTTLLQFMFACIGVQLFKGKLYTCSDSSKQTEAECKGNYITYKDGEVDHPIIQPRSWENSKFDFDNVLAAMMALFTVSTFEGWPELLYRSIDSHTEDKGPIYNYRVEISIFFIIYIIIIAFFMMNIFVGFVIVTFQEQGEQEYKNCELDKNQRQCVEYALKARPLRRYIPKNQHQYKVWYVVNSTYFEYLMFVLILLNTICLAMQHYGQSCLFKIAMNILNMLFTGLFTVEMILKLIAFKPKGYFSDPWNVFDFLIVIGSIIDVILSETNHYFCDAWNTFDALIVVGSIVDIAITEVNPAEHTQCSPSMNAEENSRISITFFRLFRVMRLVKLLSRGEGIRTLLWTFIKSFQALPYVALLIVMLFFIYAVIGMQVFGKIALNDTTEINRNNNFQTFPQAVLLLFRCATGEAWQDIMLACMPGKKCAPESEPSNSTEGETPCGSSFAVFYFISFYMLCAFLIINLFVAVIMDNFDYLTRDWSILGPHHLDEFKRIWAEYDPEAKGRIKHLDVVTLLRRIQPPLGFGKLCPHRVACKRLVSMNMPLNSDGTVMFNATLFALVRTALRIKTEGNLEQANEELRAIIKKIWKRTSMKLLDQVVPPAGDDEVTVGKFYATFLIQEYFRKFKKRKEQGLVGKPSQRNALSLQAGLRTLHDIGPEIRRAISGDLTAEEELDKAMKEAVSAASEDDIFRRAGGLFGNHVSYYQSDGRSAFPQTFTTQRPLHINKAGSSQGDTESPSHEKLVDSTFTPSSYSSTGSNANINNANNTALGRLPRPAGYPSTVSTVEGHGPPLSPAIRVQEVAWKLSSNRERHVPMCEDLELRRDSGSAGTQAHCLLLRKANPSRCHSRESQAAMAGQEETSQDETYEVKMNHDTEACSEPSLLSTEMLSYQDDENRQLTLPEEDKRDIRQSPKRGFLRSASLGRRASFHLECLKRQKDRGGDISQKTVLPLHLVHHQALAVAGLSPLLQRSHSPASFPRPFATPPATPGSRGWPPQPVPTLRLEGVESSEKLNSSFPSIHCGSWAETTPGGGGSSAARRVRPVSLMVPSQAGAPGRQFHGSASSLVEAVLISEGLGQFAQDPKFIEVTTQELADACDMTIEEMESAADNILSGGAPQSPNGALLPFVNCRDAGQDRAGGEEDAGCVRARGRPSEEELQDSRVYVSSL

[8] = target: Voltage-gated inwardly rectifying potassium channel KCNH2 (Homo sapiens, UniProt Q12809); test: Binding affinity to human ERG channel
Cytochrome P450 3A4 = Cytochrome P450 3A4 (Homo sapiens, UniProt P08684); test: Inhibition of CYP3A4 in human liver microsomes assessed as testosterone 6beta-hydroxylation; format: ADME
Cytochrome P450 3A4, sequence (P08684 whole entry): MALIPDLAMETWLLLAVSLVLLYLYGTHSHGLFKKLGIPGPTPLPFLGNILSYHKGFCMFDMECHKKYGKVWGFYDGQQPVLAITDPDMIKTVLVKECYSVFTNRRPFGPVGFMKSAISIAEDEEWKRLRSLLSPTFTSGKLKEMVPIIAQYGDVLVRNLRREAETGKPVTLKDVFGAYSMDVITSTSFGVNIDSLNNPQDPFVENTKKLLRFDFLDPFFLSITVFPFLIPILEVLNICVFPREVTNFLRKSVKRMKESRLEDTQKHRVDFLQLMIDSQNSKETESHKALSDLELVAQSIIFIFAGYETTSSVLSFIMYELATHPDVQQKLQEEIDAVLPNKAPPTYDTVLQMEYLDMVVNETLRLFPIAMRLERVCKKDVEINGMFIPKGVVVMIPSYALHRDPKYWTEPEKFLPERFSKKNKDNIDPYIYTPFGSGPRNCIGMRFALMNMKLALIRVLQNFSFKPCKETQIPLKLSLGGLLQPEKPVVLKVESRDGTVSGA

Cytochrome P450 2D6 = Cytochrome P450 2D6 (Homo sapiens, UniProt P10635); test: Inhibition of CYP2D6 in human liver microsomes assessed as dextraomethorphan O-demethylation; format: ADME
Cytochrome P450 2D6, sequence (P10635 whole entry): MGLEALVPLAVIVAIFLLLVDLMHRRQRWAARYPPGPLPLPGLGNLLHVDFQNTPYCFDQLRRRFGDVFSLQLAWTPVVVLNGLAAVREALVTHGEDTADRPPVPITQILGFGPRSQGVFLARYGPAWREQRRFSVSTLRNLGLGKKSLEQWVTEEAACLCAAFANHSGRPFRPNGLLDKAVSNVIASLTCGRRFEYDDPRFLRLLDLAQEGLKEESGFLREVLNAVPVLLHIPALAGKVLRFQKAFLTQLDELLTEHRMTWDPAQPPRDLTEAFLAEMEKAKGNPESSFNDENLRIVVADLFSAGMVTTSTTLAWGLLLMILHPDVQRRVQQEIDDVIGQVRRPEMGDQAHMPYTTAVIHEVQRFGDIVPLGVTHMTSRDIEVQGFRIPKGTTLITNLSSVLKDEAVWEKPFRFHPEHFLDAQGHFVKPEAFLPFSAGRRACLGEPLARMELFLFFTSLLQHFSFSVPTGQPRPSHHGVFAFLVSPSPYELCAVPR

Cytochrome P450 2C9 = Cytochrome P450 2C9 (Homo sapiens, UniProt P11712); test: Inhibition of CYP2C9 in human liver microsomes assessed as diclofenac alpha'-hydroxylation; format: ADME
Cytochrome P450 2C9, sequence (P11712 whole entry): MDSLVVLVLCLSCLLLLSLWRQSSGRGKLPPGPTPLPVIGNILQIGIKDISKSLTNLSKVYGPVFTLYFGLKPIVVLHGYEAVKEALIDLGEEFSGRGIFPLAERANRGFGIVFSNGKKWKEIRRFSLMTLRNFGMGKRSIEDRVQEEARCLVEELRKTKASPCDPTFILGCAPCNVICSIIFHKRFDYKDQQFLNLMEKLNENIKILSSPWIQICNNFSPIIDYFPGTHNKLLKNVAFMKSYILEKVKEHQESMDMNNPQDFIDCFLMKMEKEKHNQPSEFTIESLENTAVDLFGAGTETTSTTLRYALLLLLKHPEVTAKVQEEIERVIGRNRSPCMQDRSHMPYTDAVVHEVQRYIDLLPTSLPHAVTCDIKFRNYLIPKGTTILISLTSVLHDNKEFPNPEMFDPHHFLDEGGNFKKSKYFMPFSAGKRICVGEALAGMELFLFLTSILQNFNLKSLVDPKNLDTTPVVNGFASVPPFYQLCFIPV

[9] = target: T1, Beta-3 adrenergic receptor; test: Agonist activity at human beta3 adrenergic receptor expressed in CHO cells assessed as accumulation of cAMP after 30 mins by TR-FRET assay relative to (R)-(-)-isoproterenol; format: functional, cell-based
Rattus norvegicus [10] = test: Unbound clearance in rat at 1 mg/kg, iv or 2 mg/kg, po; format: ADME, organism-based; settings: in vivo
Canis familiaris [11] = test: Unbound clearance in dog at 0.5 mg/kg, iv or 2 mg/kg, po; format: ADME, organism-based, Canis lupus familiaris; settings: in vivo
Rhesus monkey [12] = test: Unbound clearance in rhesus monkey at 0.5 mg/kg, iv or 2 mg/kg, po; format: ADME, organism-based, Macaca mulatta; settings: in vivo
Rattus norvegicus [13] = test: Dose normalized total AUC in rat at 2 mg/kg, po; format: ADME, organism-based; settings: in vivo
Canis familiaris [14] = test: Dose normalized total AUC in dog at 2 mg/kg, po; format: ADME, organism-based, Canis lupus familiaris; settings: in vivo
Rhesus monkey [15] = test: Dose normalized total AUC in rhesus monkey at 2 mg/kg, po; format: ADME, organism-based, Macaca mulatta; settings: in vivo
[16] = Oral bioavailability in rat at 2 mg/kg; format: ADME, organism-based; settings: in vivo
[17] = Oral bioavailability in dog at 2 mg/kg; format: ADME, organism-based, Canis lupus familiaris; settings: in vivo
[18] = Oral bioavailability in rhesus monkey at 2 mg/kg; format: ADME, organism-based, Macaca mulatta; settings: in vivo
[19] = Fraction unbound in rat at 1 mg/kg, iv or 2 mg/kg, po; format: ADME, organism-based; settings: in vivo
[20] = Fraction unbound in dog at 0.5 mg/kg, iv or 2 mg/kg, po; format: ADME, organism-based, Canis lupus familiaris; settings: in vivo
[21] = Fraction unbound in rhesus monkey at 0.5 mg/kg, iv or 2 mg/kg, po; format: ADME, organism-based, Macaca mulatta; settings: in vivo
[22] = target: Beta-3 adrenergic receptor (Rattus norvegicus, UniProt P26255); test: Agonist activity at rat beta3 adrenergic receptor expressed in CHO cells assessed as accumulation of cAMP after 30 mins by TR-FRET assay; format: functional, cell-based
Beta-3 adrenergic receptor (Rattus norvegicus, UniProt P26255), sequence (P26255 whole entry): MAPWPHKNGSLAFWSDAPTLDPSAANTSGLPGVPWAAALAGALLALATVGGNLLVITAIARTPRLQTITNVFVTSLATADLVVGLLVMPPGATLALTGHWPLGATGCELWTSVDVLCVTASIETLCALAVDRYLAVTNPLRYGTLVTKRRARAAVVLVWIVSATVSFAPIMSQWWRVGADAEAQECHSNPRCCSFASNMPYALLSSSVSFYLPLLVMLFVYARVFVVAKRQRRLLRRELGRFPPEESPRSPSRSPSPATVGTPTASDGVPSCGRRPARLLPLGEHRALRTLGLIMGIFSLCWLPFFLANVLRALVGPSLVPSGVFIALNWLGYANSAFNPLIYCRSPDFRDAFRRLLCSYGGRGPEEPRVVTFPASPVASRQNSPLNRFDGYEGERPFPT

[23] = target: Beta-3 adrenergic receptor (Rattus norvegicus) (UniProt P26255); test: Agonist activity at rat beta3 adrenergic receptor expressed in CHO cells assessed as accumulation of cAMP after 30 mins by TR-FRET assay relative to (R)-(-)-isoproterenol; format: functional, cell-based
Beta-3 adrenergic receptor (Rattus norvegicus), sequence (P26255 whole entry): as above

[24] = target: T2, Beta-3 adrenergic receptor (Macaca mulatta, UniProt Q28524); test: Agonist activity at rhesus monkey beta3 adrenergic receptor expressed in CHO cells assessed as accumulation of cAMP after 30 mins by TR-FRET assay; format: functional, cell-based
T2 sequence (Q28524 whole entry): as the sequence (Q28524 whole entry) above

[25] = target: Beta-3 adrenergic receptor (Macaca mulatta) (UniProt Q28524); test: Agonist activity at rhesus monkey beta3 adrenergic receptor expressed in CHO cells assessed as accumulation of cAMP after 30 mins by TR-FRET assay relative to (R)-(-)-isoproterenol; format: functional, cell-based
[26] = target: T2, Beta-3 adrenergic receptor; test: Agonist activity at rhesus monkey beta3 adrenergic receptor expressed in CHO cells assessed as accumulation of cAMP after 30 mins by TR-FRET assay in presence of 40% serum; format: functional, cell-based
[27] = Solubility of the compound in buffer at pH >= […]; format: physicochemical

SMILES: O=S(=O)(Nc1ccc(CCNC[C@H](O)c2cccnc2)cc1)c1ccc(-c2nc(-c3ccc(C(F)(F)F)cc3)cs2)cc1
- EC50 [1]: 25 nM
- max activation [2]: 106%
- max activation [3]: 17%
- AC50 [4]: 560 nM
- IC50 [5]: 5000 nM
- logD [6]: 4.7
- IC50 [7]: 1700 nM
- IC50 [8]: 220 nM
- IC50 (Cytochrome P450 3A4): 9300 nM
- IC50 (Cytochrome P450 2D6): 11000 nM
- IC50 (Cytochrome P450 2C9): 24000 nM
- max activation [9]: 93%
- CL free (Rattus norvegicus [10]): > 3100 mL/min/kg
- CL free (Canis familiaris [11]): > 1000 mL/min/kg
- CL free (Rhesus monkey [12]): > 950 mL/min/kg
- AUC/dose (Rattus norvegicus [13]): 70 nM·h/mg/kg
- AUC/dose (Canis familiaris [14]): 290 nM·h/mg/kg
- AUC/dose (Rhesus monkey [15]): 50 nM·h/mg/kg
- bioavailability [16]: 17%
- bioavailability [17]: 27%
- bioavailability [18]: 4%
- fraction unbound [19]: ≤ 0.02
- fraction unbound [20]: ≤ 0.02
- fraction unbound [21]: ≤ 0.02
- EC50 [22]: 3400 nM
- max activation [23]: 17%
- EC50 [24]: 0.43 nM
- max activation [25]: 81%
- EC50 [26]: 17 nM
- solubility [27]: < 100 µg/mL

— ChEMBL document CHEMBL3763146 (J Med Chem, 2016)
